Measured values as given in PMC6585941 (SLAS discovery : advancing life sciences R & D, 2018).
Each block holds one molecule with its values, some of them ahead of it.

Legend:
Recombinant human IDE = molecular target: T1, Recombinant human IDE (Homo sapiens, UniProt P14735); test: Fluorescence polarization; format: biochemical
T1 sequence (P14735 1-1019): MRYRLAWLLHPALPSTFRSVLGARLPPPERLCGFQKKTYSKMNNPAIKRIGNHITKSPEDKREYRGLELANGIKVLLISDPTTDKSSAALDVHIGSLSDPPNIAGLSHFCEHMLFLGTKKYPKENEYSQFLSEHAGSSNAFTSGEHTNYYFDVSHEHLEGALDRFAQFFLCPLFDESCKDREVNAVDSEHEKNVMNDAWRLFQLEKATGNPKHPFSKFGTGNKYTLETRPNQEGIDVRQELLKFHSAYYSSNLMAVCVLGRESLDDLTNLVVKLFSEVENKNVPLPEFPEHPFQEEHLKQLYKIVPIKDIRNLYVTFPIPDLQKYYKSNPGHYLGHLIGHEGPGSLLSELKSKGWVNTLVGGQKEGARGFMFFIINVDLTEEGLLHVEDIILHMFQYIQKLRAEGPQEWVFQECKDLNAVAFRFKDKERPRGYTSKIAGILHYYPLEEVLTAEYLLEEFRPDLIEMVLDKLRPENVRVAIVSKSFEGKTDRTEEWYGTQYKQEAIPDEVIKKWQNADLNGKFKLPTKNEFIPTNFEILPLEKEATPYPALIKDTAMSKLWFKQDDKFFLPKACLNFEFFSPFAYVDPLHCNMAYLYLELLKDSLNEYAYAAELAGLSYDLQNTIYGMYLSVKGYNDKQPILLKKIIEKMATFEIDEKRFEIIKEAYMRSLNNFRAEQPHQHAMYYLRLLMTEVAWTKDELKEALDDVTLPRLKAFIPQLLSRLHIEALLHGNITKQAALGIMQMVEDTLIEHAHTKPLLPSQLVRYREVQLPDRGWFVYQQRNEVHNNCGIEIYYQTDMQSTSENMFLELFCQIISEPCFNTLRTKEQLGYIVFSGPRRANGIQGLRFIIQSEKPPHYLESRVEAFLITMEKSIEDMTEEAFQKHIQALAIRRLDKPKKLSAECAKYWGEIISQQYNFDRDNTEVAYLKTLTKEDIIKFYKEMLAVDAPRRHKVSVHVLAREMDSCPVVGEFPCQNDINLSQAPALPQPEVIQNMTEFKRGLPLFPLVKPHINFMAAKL

[1] = tested on: semi-purified protease purified from rat liver, inferred to be IDE; settings: protease purified by affinity chromatography from rat liver; cited from earlier work
purified recombinant IDE = settings: same form of purified recombinant IDE; cited from earlier work
[2] = ML345 50 nM, FP-based assay, mean ± SD of 3 independent runs

KM^app of FBG degradation in presence of inhibitor (Recombinant human IDE; [2]): 0.392 ± 0.073 µM
vmax^app of FBG degradation in presence of inhibitor (Recombinant human IDE; [2]): 0.827 ± 0.032 nM/s
mechanism of inhibition of IDE (Recombinant human IDE; kinetics analyses, Lineweaver-Burk plots, P12–3A 5 µM or ML345 50 nM): irreversible
Molecule: O=c1c2cc(F)ccc2sn1-c1cc(S(=O)(=O)N2CCOCC2)ccc1N1CCOCC1 [ML345]

Molecule: bacitracin
inhibition of the purified protease [1]: susceptible to inhibition

Molecule: insulin
kcat of degradation by IDE (purified recombinant IDE): 0.025 s⁻¹
